{"source": "paper PMC8287028", "about": "(Frontiers in Veterinary Science, 2021)", "key": {"[1]": {"experiment": "Pharmacokinetics after oral apixaban capsules, plasma concentrations by LC/MS", "settings": "for AUC: AUC (area-under-the-curve); for Cmax: CMax (peak concentration); for bioavailability: F% (fraction of oral dose absorbed, bioavailability); for half-life: K10 T½ (apparent elimination half-life); for Vd/F: V/F (volume of distribution per fraction absorbed)", "excerpt": "Additionally, drug metabolism might be different in beagles compared with mixed-breed dogs ([33], [34]). […] The study was approved by the Institutional Animal Care and Use Committee (IACUC) at Cornell University College of Veterinary Medicine (Protocol #2019-0099). All dogs were housed at Cornell University and cared for by licensed veterinarians and technicians according to established protocols. All dogs were permanently adopted into private homes after study completion.\nTo achieve uniform dosing, custom IV (2.5 mg/ml) and oral capsule formulations were created. The protocol for generation of the IV formulation was as previously published ([25]), and all procedures were performed in a laminar flow hood under strict aseptic conditions. […] After vortexing, the formulation was aseptically filtered (Corning 0.22 μm cellulose acetate filter, Millipore-Sigma) then drawn into 10 ml syringes (BD, Franklin Lakes, NJ). The IV formulation was prepared 1 h before administration and stored in the dark at 20-25°C. […] All injection durations were identical. Separately, all dogs received bodyweight appropriate capsule size to provide ~0.2 mg/kg PO once. Capsules were administered without food and witnessed to be ingested. A minimum washout period of 2 weeks elapsed between initial PO administration and subsequent IV administration. The maximum duration of capsule storage prior to administration was 76 days.\nOn the days of drug administration, 5 Fr × 25 cm trilumen wire-guided catheters (Mila International, Erlanger, KY) were aseptically placed in external jugular veins by modified-Seldinger technique to facilitate atraumatic, repeat blood sample collection. Dogs were sedated with IV butorphanol 0.2 mg/kg and dexmedetomidine 5 μg/kg (Zoetis, Parsippany, NJ) to facilitate catheter placement. Jugular catheters were secured using 3-0 nylon sutures, protected with sterile bandages, and flushed with 0.9% saline (no heparin was used). Dogs were allowed to recover fully from sedation prior to drug administration. […] Catheters were flushed with 0.9% saline, without heparin. Samples were also drawn into K2-EDTA and no-additive tubes at baseline and 24 h post-administration for complete blood counts and serum biochemistry profiles. Dogs were closely monitored for adverse reactions throughout the sample collection period. […] After each sample collection, one citrate anticoagulated whole blood sample was analyzed using thromboelastography (TEG), while the second citrate sample was centrifuged (1,370 g, 10 min, 20°C), the plasma separated, split into two aliquots and then frozen at −80°C pending batch analyses.\nIn brief, proteins in the sample were initially precipitated by combining 100 μl of plasma sample with 200 μl of 0.1 M ZnSO4 solution and 700 μl of isotope standard stock solution, mixing in a vortex device for 5 s followed by centrifugation (14,000 g, 5 min, RT). The supernatant was added to glass autosampler vials and an aliquot injected into the liquid chromatography 2D UPLC system (Waters Acquity UPLC H-class with 2D Technology System). Sample extraction was performed using a 2.1 × 30 mm reverse phase cartridge (column 1, Waters, XBridge C8, 10 μm) followed by an analytical separation on a 2.1 × 50 mm reverse phase column (column 2, Waters, Acquity UPLC BEH C18, 1.7 μm) and an elution with a linear gradient using water containing 0.1% formic acid and 2 mmol/L ammonium acetate and methanol containing 0.1% formic acid and 2 mmol/L ammonium acetate. […] A 10-point calibration curve was generated with concentrations ranging from 1 to 1,000 ng/ml, with three quality control samples at each of three concentrations (low, 2.5 ng/ml; medium, 50 ng/ml; high, 500 ng/ml).\nWhere C is the plasma drug concentration, V is the volume of distribution, D is the dose, K10 is the first order elimination rate constant, and T is time. Secondary parameters included area-under-the curve (AUC), systemic clearance (CL), and half-life."}, "[2]": {"test_system": "citrated whole blood", "experiment": "Tissue-factor activated thromboelastography (TF-TEG) on citrated whole blood of dosed dogs", "format": "in vivo, dog", "description": "Catheters were flushed with 0.9% saline, without heparin. […] Coagulation assays were performed on platelet-poor, citrated plasma samples by a reference laboratory (Comparative Coagulation Laboratory, Animal Health Diagnostic Center, Ithaca, NY). […] Residual, uninhibited Factor Xa cleaves the chromogenic substrate such that the inverse of the color change in the reaction mixture is proportional to the drug concentration in the test plasma. […] Assay controls, consisting of human plasma spiked with apixaban (STA Apixaban Controls, Diagnostica Stago) were analyzed before each batch of test samples to confirm assay performance. The apixaban levels in calibrators and controls are defined by the manufacturer from an internal reference assayed by HPLC-MS. […] A mechanical endpoint method (STA Compact, Diagnostica Stago) and human coagulation reagents were used to measure prothrombin time (Thromboplastin LI, Helena Diagnostics, Beaumont, TX) and activated partial thromboplastin time (Dade Actin FS, Dade Behring, Newark, DE). […] Tissue-factor (1:50,000 final dilution) activated TEG was performed using standard equipment (TEG-5000, Haemonetics, Braintree, MA) as previously reported ([35]), with assays conducted per established guidelines ([36]), with a modification to eliminate the rest time to facilitate rapid sample processing. Thromboelastography assays were conducted by experienced operators using four TEG channels and tracings terminated after maximum amplitude was established. Four values were extracted from TEG tracings: reaction time (R-time), clot formation time (K-time), clot formation angle (alpha), and maximum amplitude (MA). Pairwise comparisons between continuous variables were conducted with Wilcoxon matched-pairs signed rank test, while comparisons of more than two groups were conducted using the Friedman test with Dunn's post-hoc adjustment. Specifically, the Wilcoxon matched-pairs signed rank tests were used to compare the complete blood count and serum chemistry values between baseline and the +24 h time point. Comparisons of pharmacodynamic variables between baseline values and those at discrete sampling intervals were performed using the Friedman test with Dunn's post-hoc correction for multiple comparisons. […] Alpha was set at 0.05. Statistical analyses were performed using commercial software (Prism 9, GraphPad, La Jolla, CA)."}, "[3]": {"test_system": "Factor Xa", "settings": "cited from earlier work"}, "[4]": {"settings": "both, mixed-breed, dog, plasma, po, 0.2 mg/kg, dogs, mean dose 0.2 mg/kg, geometric mean, n = 5"}, "[5]": {"settings": "both, mixed-breed, dog, plasma, po, 0.2 mg/kg, dogs, mean dose 0.2 mg/kg, mean, n = 5"}, "[6]": {"settings": "dogs, PO, mean dose 0.2 mg/kg, model fit, individual dogs (Dog 1-5), 0.2 mg/kg"}, "[7]": {"settings": "dogs, PO, mean dose 0.2 mg/kg, geometric mean, n = 5"}, "[8]": {"settings": "dogs, PO, mean dose 0.2 mg/kg, individual dogs (Dog 1-5), 0.2 mg/kg"}, "[9]": {"settings": "dogs, PO, mean dose 0.2 mg/kg, mean, n = 5"}}, "note": "Where “and” joins values, the source holds several entries; their conditions need not be identical. Equal entries are not always repeated."}
{"smiles": "COc1ccc(-n2nc(C(N)=O)c3c2C(=O)N(c2ccc(N4CCCCC4=O)cc2)CC3)cc1", "note": "[apixaban]", "values": [{"measurement": "mean maximum observed plasma concentration (CMax)", "setting": "[1]; both, mixed-breed, dog, in vivo, po", "value": "176 ± 126", "unit": "ng/mL"}, {"measurement": "CL/F", "setting": "[1]; both, mixed-breed, dog, in vivo, po, 0.2 mg/kg", "value": 1.88, "unit": "mL/min/kg"}, {"measurement": "AUC", "setting": "[1]; [4]", "value": 1770, "unit": "ng·h/mL"}, {"measurement": "AUC", "setting": "[1]; [5]", "value": 1950, "unit": "ng·h/mL"}, {"measurement": "CL/F", "setting": "[1]; both, mixed-breed, dog, plasma, po, 0.2 mg/kg, CL/F (systemic clearance per fraction absorbed), dogs, mean dose 0.2 mg/kg, mean, n = 5", "value": 2.08, "unit": "mL/min/kg"}, {"measurement": "Cmax", "setting": "[1]; both, mixed-breed, dog, plasma, po, 0.2 mg/kg, dogs, mean dose 0.2 mg/kg, model fit, geometric mean, n = 5", "value": 196, "unit": "ng/mL"}, {"measurement": "Cmax", "setting": "[1]; both, mixed-breed, dog, plasma, po, 0.2 mg/kg, dogs, mean dose 0.2 mg/kg, model fit, mean, n = 5", "value": 223, "unit": "ng/mL"}, {"measurement": "bioavailability", "setting": "[1]; both, mixed-breed, dog, plasma, po, 0.2 mg/kg, dogs, PO 0.2 mg/kg vs IV 0.18 mg/kg, geometric mean, n = 5", "value": 24.1, "unit": "%"}, {"measurement": "bioavailability", "setting": "[1]; both, mixed-breed, dog, plasma, po, 0.2 mg/kg, dogs, PO 0.2 mg/kg vs IV 0.18 mg/kg, mean, n = 5", "value": 28.4, "unit": "%"}, {"measurement": "half-life", "setting": "[1]; [4]", "value": 3, "unit": "h"}, {"measurement": "half-life", "setting": "[1]; both, mixed-breed, dog, plasma, po, 0.2 mg/kg, dogs, mean dose 0.2 mg/kg, individual dogs (Dog 1-5)", "value": 3.8, "unit": "h"}, {"measurement": "half-life", "setting": "[1]; [5]", "value": 3.1, "unit": "h"}, {"measurement": "TMax", "setting": "[1]; both, mixed-breed, dog, plasma, po, 0.2 mg/kg, TMax, dogs, mean dose 0.2 mg/kg, model fit, geometric mean, n = 5", "value": 5, "unit": "h"}, {"measurement": "TMax", "setting": "[1]; both, mixed-breed, dog, plasma, po, 0.2 mg/kg, TMax, dogs, mean dose 0.2 mg/kg, model fit, individual dogs (Dog 1-5)", "value": 3.5, "unit": "h"}, {"measurement": "Vd/F", "setting": "[1]; [4]", "value": 0.492, "unit": "L/kg"}, {"measurement": "Vd/F", "setting": "[1]; [5]", "value": 0.534, "unit": "L/kg"}, {"measurement": "F% (fraction of oral dose absorbed, bioavailability)", "setting": "[1]; dogs, PO 0.2 mg/kg vs IV 0.18 mg/kg, individual dogs (Dog 1-5)", "value": "35.0% and 51.5% and 15.0% and 10.0% and 30.4%"}, {"measurement": "residual plasma concentrations", "setting": "[1]; dogs, PO 0.2 mg/kg, quantifiable at the 24-h time point", "value": "declined to below the level of quantitation by the 30-h time point"}, {"measurement": "AUC (area-under-the-curve)", "setting": "[1]; dogs, PO capsule, mean dose 0.2 mg/kg, fasted, individual dogs (Dog 1-5), 0.2 mg/kg", "value": "2,082.4 h*ng/ml and 2,396.3 h*ng/ml and 1,335.5 h*ng/ml and 863.4 h*ng/ml and 3,051.2 h*ng/ml"}, {"measurement": "CMax (peak concentration)", "setting": "[1]; [6]", "value": "236.2 ng/mL and 294.3 ng/mL and 165.1 ng/mL and 71.4 ng/mL and 348.5 ng/mL"}, {"measurement": "TMax", "setting": "[1]; [6]", "value": "4.4 h and 4.9 h and 6.3 h and 6.1 h"}, {"measurement": "TMax (time to CMax)", "setting": "[1]; dogs, PO, mean dose 0.2 mg/kg, model fit, mean, n = 5, 0.2 mg/kg", "value": 5, "unit": "h"}, {"measurement": "K01 (first order absorption rate)", "setting": "[1]; [7]", "value": 0.4, "unit": "h⁻¹"}, {"measurement": "K10 (first order elimination rate)", "setting": "[1]; [7]", "value": 0.2, "unit": "h⁻¹"}, {"measurement": "TLag (lag time for capsule dissolution and stomach emptying)", "setting": "[1]; [7]", "value": 1.8, "unit": "h"}, {"measurement": "CL/F (systemic clearance per fraction absorbed)", "setting": "[1]; [8]", "value": "1.64 mL/min/kg and 1.33 mL/min/kg and 2.597 mL/min/kg and 3.668 mL/min/kg and 1.15 mL/min/kg"}, {"measurement": "K01 (first order absorption rate)", "setting": "[1]; [8]", "value": "0.7 h⁻¹ and 0.5 h⁻¹ and 0.3 h⁻¹ and 0.2 h⁻¹ and 0.6 h⁻¹"}, {"measurement": "K10 (first order elimination rate)", "setting": "[1]; [8]", "value": "0.2 1/h (4×) and 0.3 1/h"}, {"measurement": "TLag (lag time for capsule dissolution and stomach emptying)", "setting": "[1]; [8]", "value": "0.9 h and 1.6 h and 1.9 h and 1.8 h and 3.4 h"}, {"measurement": "V/F (volume of distribution per fraction absorbed)", "setting": "[1]; [8]", "value": "0.5407 L/kg and 0.3267 L/kg and 0.4659 L/kg and 0.9747 L/kg and 0.3612 L/kg"}, {"measurement": "K01 (first order absorption rate)", "setting": "[1]; [9]", "value": 0.5, "unit": "h⁻¹"}, {"measurement": "K10 (first order elimination rate)", "setting": "[1]; [9]", "value": 0.2, "unit": "h⁻¹"}, {"measurement": "TLag (lag time for capsule dissolution and stomach emptying)", "setting": "[1]; dogs, PO, mean dose 0.2 mg/kg, mean, n = 5, 0.2 mg/kg", "value": "2 h and 2.0 h"}, {"measurement": "time of mean maximum observed plasma concentration", "setting": "[1]; dogs, single oral dose 0.20 mg/kg, post-dosing, observed", "value": 6, "unit": "h"}, {"measurement": "TF-TEG K-time versus baseline", "setting": "[2]; IV 0.18 mg/kg, at 5 min", "value": "significantly different from baseline"}, {"measurement": "TF-TEG R-time versus baseline", "setting": "[2]; IV 0.18 mg/kg, at 5 min", "value": "significantly different from baseline"}, {"measurement": "TF-TEG alpha angle versus baseline", "setting": "[2]; IV 0.18 mg/kg, at 5 min", "value": "significantly different from baseline"}, {"measurement": "TF-TEG R-time versus baseline", "setting": "[2]; IV 0.18 mg/kg, at 15 min ([…])", "value": "significantly prolonged"}, {"measurement": "TF-TEG tracings", "setting": "[2]; PO 0.2 mg/kg", "value": "not consistently affected"}, {"measurement": "TF-TEG R-time versus baseline", "setting": "[2]; PO 0.2 mg/kg, at the 12-h timepoint", "value": "significantly different from baseline"}, {"measurement": "aXa activity observed after 12 h", "setting": "[3]; humans receiving a single intravenous apixaban injection", "value": 150, "unit": "ng/mL"}, {"measurement": "aXa activity values typically observed in human treatment trials", "setting": "[3]; humans", "value": "approximately 150 ng/ml"}]}
